Experimental data taken from paper PMC10054553, “Development of the First ^18F-Labeled Radiohybrid-Based Minigastrin Derivative with High Target Affinity and Tumor Accumulation by Substitution of the Chelating Moiety” (Pharmaceutics, 2023).
Read-outs that look alike come from different tables or passages of the source.

Assays:
[1] = system: AR42J tumor-bearing CB17-SCID mice; assay: Biodistribution in AR42J tumor-bearing CB17-SCID mice; format: in vivo; settings: 24 h p.i.
Description: (§1) All animal experiments were conducted in accordance with general animal welfare regulations in Germany (German animal protection act, in the edition of the announcement, dated 18 May 2006, as amended by Article 280 of 19 June 2020, approval no. ROB-55.2-1-2532.Vet_02-18-109 by the General Administration of Upper Bavaria) and the institutional guidelines for the care and use of animals. CB17-SCID mice of both genders and aged 2–12 months (Charles River Laboratories International Inc., Sulzfeld, Germany) were allowed to acclimate at the in-house animal facility for at least one week before inoculation was performed. Tumor xenografts were established as previously reported. Exclusion criteria for animals from an experiment were either weight loss higher than 20%, a tumor size above 1500 mm^3, an ulceration of the tumor, respiratory distress or a change of behavior. None of these criteria applied to any animal from the experiment. Neither randomization nor blinding was applied in the allocation of the experiments. Health status is SPF according to FELASA recommendation.
(§2) Biodistribution studies (n = 4) and µSPECT/CT as well as µPET/CT imaging (using a MILabs VECTor^4 small-animal SPECT/PET/OI/CT device, MILabs, Utrecht, The Netherlands) at 1 and 24 h p.i. were carried out as previously published. For all ^177Lu-labeled compounds, approximately 2–3 MBq (100 pmol)—and for the ^18F-labeled analog, approximately 7 MBq (100 pmol)—were administered. For all competition studies, 2.90 mg/kg (40 nmol) of [^natLu]Lu-DOTA-MGS5 (10^−3 M in phosphate-buffered saline) were co-administered.

[2] = as above; format: in vivo; settings: mouse; for tissue to tissue ratio at 24 h: both sexes, CB17-SCID, total radioactivity; for tissue to tissue ratio at 24 h / tissue uptake at 24 h: 24 h p.i.; for tissue uptake at 1 h: 1 h p.i.
Description: as §1, §2

[3] = 100 pmol co-injected with DOTA-MGS5 (40 nmol), n = 2
[4] = adrenal, 100 pmol, 100 pmol, n = 4, read-out: Adrenal activity
[5] = blood, 100 pmol, 100 pmol, n = 4, read-out: Blood activity
[6] = bone, 100 pmol, 100 pmol, n = 4, read-out: Bone activity
[7] = heart, 100 pmol, 100 pmol, n = 4, read-out: Heart activity
[8] = intestine, 100 pmol, 100 pmol, n = 4, read-out: Intestine activity
[9] = liver, 100 pmol, 100 pmol, n = 4, read-out: Liver activity
[10] = lung, 100 pmol, 100 pmol, n = 4, read-out: Lung activity
[11] = muscle, 100 pmol, 100 pmol, n = 4, read-out: Muscle activity

CCCC[C@H](NC(=O)[C@H](Cc1c[nH]c2ccccc12)NC(=O)CNC(=O)[C@H](Cc1ccc(O)cc1)NC(=O)[C@H](C)NC(=O)CC[C@@H](NC(=O)CC[C@@H](NC(=O)CC[C@@H](NC(=O)CC[C@@H](NC(=O)CC[C@@H](NC(=O)CC[C@@H](NC(=O)CC[C@@H](NC(=O)CC[C@@H](NC(=O)[C@@H](CNC(=O)c1ccc([Si](F)(C(C)(C)C)C(C)(C)C)cc1)NC(=O)CN1CCN(CC(=O)O)CCN(CC(=O)O)CCN(CC(=O)O)CC1)C(=O)O)C(=O)O)C(=O)O)C(=O)O)C(=O)O)C(=O)O)C(=O)O)C(=O)O)C(=O)N[C@@H](CC(=O)O)C(=O)N[C@@H](Cc1ccccc1)C(N)=O [[^19F]F-[^177Lu]Lu-DOTA-rhCCK-18] [metal not drawn]
fold enhanced kidney values compared to [177Lu]Lu-DOTA-PP-F11N [1]: 40 fold | fold higher tumor uptake compared to [177Lu]Lu-DOTA-PP-F11N [1]: 13 fold | Pancreas activity, competition studies [1, 3]: 0.22 ± 0.02 %ID/g | Stomach activity, competition studies [1, 3]: < 2 %ID/g | Tumor activity, competition studies [1, 3]: < 2 %ID/g | Kidney activity ([1]; 100 pmol, n = 4): 134 ± 18 %ID/g | Pancreas activity ([1]; 100 pmol, n = 4): 0.34 ± 0.09 %ID/g | Stomach activity ([1]; 100 pmol, n = 4): 4.28 ± 1.05 %ID/g | Tumor activity ([1]; 100 pmol, n = 4, AR42J tumor): 25.4 ± 4.7 %ID/g | fold higher tumor uptake compared to (R)-DOTAGA derivative ([1]; b47: versus [177Lu]Lu-(R)-DOTAGA-rhCCK-16): 1.5 fold

CCCC[C@H](NC(=O)[C@H](Cc1c[nH]c2ccccc12)NC(=O)CNC(=O)[C@H](Cc1ccc(O)cc1)NC(=O)[C@H](C)NC(=O)CC[C@@H](NC(=O)CC[C@@H](NC(=O)CC[C@@H](NC(=O)CC[C@@H](NC(=O)CC[C@@H](NC(=O)CC[C@@H](NC(=O)CC[C@@H](NC(=O)CC[C@@H](NC(=O)[C@@H](CNC(=O)c1ccc([Si](F)(C(C)(C)C)C(C)(C)C)cc1)NC(=O)CN1CCN(CC(=O)O)CCN(CC(=O)O)CCN(CC(=O)O)CC1)C(=O)O)C(=O)O)C(=O)O)C(=O)O)C(=O)O)C(=O)O)C(=O)O)C(=O)O)C(=O)N[C@@H](CC(=O)O)C(=O)N[C@@H](Cc1ccccc1)C(N)=O [[^19F]F-[^177Lu]Lu-DOTA-rhCCK-18, metal not drawn]
tissue to tissue ratio at 24 h ([2]; tumor / adrenal, 100 pmol, n = 4, read-out: Tumor-to-background ratio, Adrenal): 73.3 ± 13.4 | tissue to tissue ratio at 24 h ([2]; tumor / blood, 100 pmol, n = 4, read-out: Tumor-to-background ratio, Blood): 1630 ± 823 | tissue to tissue ratio at 24 h ([2]; tumor / bone, 100 pmol, n = 4, read-out: Tumor-to-background ratio, Bone): 151 ± 48 | tissue to tissue ratio at 24 h ([2]; tumor / heart, 100 pmol, n = 4, read-out: Tumor-to-background ratio, Heart): 312 ± 58 | tissue to tissue ratio at 24 h ([2]; tumor / intestine, 100 pmol, n = 4, read-out: Tumor-to-background ratio, Intestine): 124 ± 30 | tissue to tissue ratio at 24 h ([2]; tumor / kidney, 100 pmol, n = 4, read-out: Tumor-to-background ratio, Kidney): 0.19 ± 0.01 | tissue to tissue ratio at 24 h ([2]; tumor / liver, 100 pmol, n = 4, read-out: Tumor-to-background ratio, Liver): 48.1 ± 6.7 | tissue to tissue ratio at 24 h ([2]; tumor / lung, 100 pmol, n = 4, read-out: Tumor-to-background ratio, Lung): 236 ± 118 | tissue to tissue ratio at 24 h ([2]; tumor / muscle, 100 pmol, n = 4, read-out: Tumor-to-background ratio, Muscle): 650 ± 542 | tissue to tissue ratio at 24 h ([2]; tumor / pancreas, 100 pmol, n = 4, read-out: Tumor-to-background ratio, Pancreas): 78.8 ± 17.5 | tissue to tissue ratio at 24 h ([2]; tumor / spleen, 100 pmol, n = 4, read-out: Tumor-to-background ratio, Spleen): 115 ± 15 | tissue to tissue ratio at 24 h ([2]; tumor / stomach, 100 pmol, n = 4, read-out: Tumor-to-background ratio, Stomach): 6.58 ± 2.77 | tissue uptake at 1 h [2, 4]: 0.52 ± 0.07 %ID/g | tissue uptake at 24 h [2, 4]: 0.37 ± 0.12 %ID/g | tissue uptake at 24 h ([2]; adrenal, 100 pmol co-injected with DOTA-MGS5 (40 nmol), n = 2, read-out: Adrenal activity, competition studies): 5.02 ± 4.64 %ID/g | tissue uptake at 1 h [2, 5]: 2.56 ± 0.6 %ID/g | tissue uptake at 24 h [2, 5]: 0.02 ± 0.01 %ID/g | tissue uptake at 24 h ([2]; blood, 100 pmol co-injected with DOTA-MGS5 (40 nmol), n = 2, read-out: Blood activity, competition studies): 0.02 %ID/g | tissue uptake at 1 h ([2]; blood, heart and lung, 100 pmol, span over the three organs, read-out: Blood, heart and lung levels): 0.9 to 2.6 %ID/g | tissue uptake at 24 h ([2]; blood, heart and lung, 100 pmol, the three organs, read-out: Blood, heart and lung levels): < 0.2 %ID/g | tissue uptake at 1 h [2, 6]: 0.48 ± 0.02 %ID/g | tissue uptake at 24 h [2, 6]: 0.18 ± 0.03 %ID/g | tissue uptake at 1 h [2, 7]: 0.94 ± 0.02 %ID/g | tissue uptake at 24 h [2, 7]: 0.08 ± 0.02 %ID/g | tissue uptake at 24 h ([2]; heart, 100 pmol co-injected with DOTA-MGS5 (40 nmol), n = 2, read-out: Heart activity, competition studies): 0.08 ± 0.01 %ID/g | tissue uptake at 1 h [2, 8]: 0.61 ± 0.11 %ID/g | tissue uptake at 24 h [2, 8]: 0.21 ± 0.02 %ID/g | tissue uptake at 24 h ([2]; intestine, 100 pmol co-injected with DOTA-MGS5 (40 nmol), n = 2, read-out: Intestine activity, competition studies): 0.17 ± 0.06 %ID/g | tissue uptake at 1 h ([2]; kidney, 100 pmol, 100 pmol, n = 4, read-out: Kidney activity): 97.2 ± 14 %ID/g | tissue uptake at 24 h ([2]; kidney, 100 pmol co-injected with DOTA-MGS5 (40 nmol), n = 2, read-out: Kidney activity, competition studies): 193 ± 15 %ID/g | tissue uptake at 1 h [2, 9]: 1.15 ± 0.18 %ID/g | tissue uptake at 24 h [2, 9]: 0.53 ± 0.07 %ID/g | tissue uptake at 24 h ([2]; liver, 100 pmol co-injected with DOTA-MGS5 (40 nmol), n = 2, read-out: Liver activity, competition studies): 1.51 ± 0.02 %ID/g | tissue uptake at 1 h [2, 10]: 2.05 ± 0.2 %ID/g | tissue uptake at 24 h [2, 10]: 0.18 ± 0.15 %ID/g | tissue uptake at 24 h ([2]; lung, 100 pmol co-injected with DOTA-MGS5 (40 nmol), n = 2, read-out: Lung activity, competition studies): 0.76 ± 0.17 %ID/g | tissue uptake at 1 h [2, 11]: 0.38 ± 0.03 %ID/g | tissue uptake at 24 h [2, 11]: 0.08 ± 0.06 %ID/g | tissue uptake at 24 h ([2]; muscle, 100 pmol co-injected with DOTA-MGS5 (40 nmol), n = 2, read-out: Muscle activity, competition studies): 0.07 ± 0.04 %ID/g | tissue uptake at 1 h ([2]; pancreas, 100 pmol, 100 pmol, n = 4, read-out: Pancreas activity): 1.22 ± 0.21 %ID/g | tissue uptake at 1 h ([2]; spleen, 100 pmol, 100 pmol, n = 4, read-out: Spleen activity): 0.6 ± 0.08 %ID/g | tissue uptake at 24 h ([2]; spleen, 100 pmol co-injected with DOTA-MGS5 (40 nmol), n = 2, read-out: Spleen activity, competition studies): 0.95 ± 0.14 %ID/g | tissue uptake at 1 h ([2]; stomach, 100 pmol, 100 pmol, n = 4, read-out: Stomach activity): 4.25 ± 0.45 %ID/g | tissue uptake at 1 h ([2]; tumor, 100 pmol, 100 pmol, n = 4, AR42J tumor, read-out: Tumor activity): 24.1 ± 4.2 %ID/g | tissue uptake at 24 h ([2]; tumor, 100 pmol co-injected with DOTA-MGS5 (40 nmol), n = 2, read-out: Tumor activity, competition studies): 1.75 ± 0.26 %ID/g
